Assays:
[1] = tested on: PB HSC's / CD34+ cells; conditions: cited from earlier work
[2] = tested on: CD34+ cells mobilized from bone marrow into peripheral blood; assay: First working embodiment: single-dose plerixafor mobilization in a deceased donor, apheresis, then CD34+ isolation

c1cc(CN2CCCNCCNCCCNCC2)ccc1CN1CCCNCCNCCCNCC1 [plerixafor, 1-{[4-(1,4,8,11-tetrazacyclotetradec-1-ylmethyl)phenyl]methyl}-1,4,8,11 tetrazacyclotetradecane]
peak onset of action ([1]; after administration): 6 to 10 h
fraction of healthy donors who fail to produce desired numbers of CD34+ cells/kg ([1]; single agent, standard dose 0.24 mg/kg, subcutaneously or intravenously): ⅓
tolerability / organ toxicity ([1]; single subcutaneous dose): well tolerated with no major organ toxicity
% CD34+ ([2]; Leukopak Product): 0.87%
% viability ([2]; Leukopak Product): 99.5%
TNC ([2]; Leukopak Product): 1.49E+10
Total CD34+ (= % CD34+/100 x TNC) ([2]; Leukopak Product): 1.29E+08
TNC/mL ([2]; Leukopak Product, single sc dose plerixafor, apheresis started 8 hours after dose, 24 liters processed): 3.23E+07
% CD34+ ([2]; Positive (CD34) fraction): 95%
% viability ([2]; Positive (CD34) fraction): 95%
TNC ([2]; Positive (CD34) fraction): 1.22E+08
TNC/mL ([2]; Positive (CD34) fraction): 2.60E+06
Total CD34+ (= % CD34+/100 x TNC) ([2]; Positive (CD34) fraction): 1.16E+08
whole body CT scans, routine hematology and serum chemistry panels before and after the procedure ([2]; deceased donor, single dose plerixafor): remained stable
tolerability of the procedure (vital signs, oxygenation, urine output) ([2]; deceased donor, single sc dose plerixafor (0.24 kg/mg), 8 hours apheresis): tolerated the procedure well
viable CD34+ cells isolated ([2]; first working embodiment): more than 1.0×10^8 cells
purity of isolated CD34+ cells ([2]; first working embodiment, after isolation): 90-95%
